Results taken from ChEMBL document CHEMBL3407472, “Multi-parameter optimization of aza-follow-ups to BI 207524, a thumb pocket 1 HCV NS5B polymerase inhibitor. Part 2: Impact of lipophilicity on promiscuity and in vivo toxicity” (Bioorg Med Chem Lett, 2015).

Tests used:
[1] = tested on: Hepatitis C virus; test: Antiviral activity against Hepatitis C virus genotype 1b infected in human Huh cells assessed as inhibition of viral replication by RT-PCR-based replicon assay; type: functional, cell-based, Hepacivirus hominis
[2] = tested on: Hepatitis C virus; test: Antiviral activity against Hepatitis C virus genotype 1a infected in human Huh cells assessed as inhibition of viral replication by RT-PCR-based replicon assay; type: functional, cell-based, Hepacivirus hominis; settings: subtype 1a
[3] = Lipophilicity, log D of the compound at pH 7.4; type: physicochemical; settings: buffer
[4] = Half life in human liver microsomes at 2 uM; type: ADME
[5] = Permeability from apical to basolateral side of human Caco2 cells; type: ADME, cell-based; settings: Caco-2, read-out: permeability
[6] = Half life in rat liver microsomes at 2 uM; type: ADME
[7] = Plasma concentration in rat at 2 mg/kg, po each in 0.5% Methylcellulose and 0.3% Tween-80 and 1% N-methylpyrrolidone after 1 hr; type: ADME, organism-based; parameters: dose 2 mg/kg, route oral
[8] = Plasma concentration in rat at 2 mg/kg, po each in 0.5% Methylcellulose and 0.3% Tween-80 and 1% N-methylpyrrolidone after 2 hrs; type: ADME, organism-based; parameters: dose 2 mg/kg, route oral
[9] = Cmax in rat at 2 mg/kg, po each in 0.5% Methylcellulose and 0.3% Tween-80 and 1% N-methylpyrrolidone; type: ADME, organism-based; parameters: dose 2 mg/kg, route oral; settings: in vivo
[10] = Lipophilicity, log D of the compound; type: physicochemical; settings: octanol/water

| Structure (SMILES) | EC50 [1] [nM] | EC50 [2] [nM] | logD [3] | also measured |
| --- | --- | --- | --- | --- |
| COc1nc(NC(=O)C2(NC(=O)c3ccc4c(C5CCCC5)c(-c5cnccn5)n(C)c4c3)CCC2)ccc1/C=C/C(=O)O | 13 | 46 | 3.3 | – |
| COc1nc(NC(=O)C(C)(C)NC(=O)c2ccc3c(C4CCCC4)c(-c4ncc(Cl)cn4)n(C)c3c2)cnc1/C=C/C(=O)O | 17 | 270 | 2.6 | – |
| COc1nc(NC(=O)C(C)(C)NC(=O)c2ccc3c(C4CCCC4)c(-c4cncnc4)n(C)c3c2)ccc1/C=C/C(=O)O | 23 | 72 | 2.2 | – |
| CCOc1nc(NC(=O)C(C)(C)NC(=O)c2ccc3c(C4CCCC4)c(-c4ncc(Br)cn4)n(C)c3c2)cnc1/C=C/C(=O)O | 14 | 67 | 3.4 | – |
| CCOc1nc(NC(=O)C2(NC(=O)c3ccc4c(C5CCCC5)c(-c5ccc(F)cn5)n(C)c4c3)CCC2)cnc1/C=C/C(=O)O | 20 | 89 | – | – |
| CCOc1nc(NC(=O)C2(NC(=O)c3ccc4c(C5CCCC5)c(-c5ccc(Cl)cn5)n(C)c4c3)CCC2)ccc1/C=C/C(=O)O | 13 | 40 | – | half-life at 2 µM [4]: 2.78 h; Papp A→B [5]: 15 ×10⁻⁶ cm/s |
| COc1nc(NC(=O)C2(NC(=O)c3ccc4c(c3)c(C)c(-c3ccc(F)cn3)n4C3CCCCC3)CCCC2)cnc1/C=C/C(=O)O | 14 | 54 | 3.2 | – |
| COc1nc(NC(=O)C2(NC(=O)c3ccc4c(c3)c(C)c(-c3ccc(F)cn3)n4C3CCCCC3)CCC2)cnc1/C=C/C(=O)O | 17 | 310 | 3.3 | – |
| CCOc1nc(NC(=O)C2(NC(=O)c3ccc4c(C5CCCC5)c(-c5ncc(Cl)cn5)n(C)c4c3)CCC2)ccc1/C=C/C(=O)O | 13 | 24 | > 5.9 | half-life at 2 µM [4]: 1.1 h; Papp A→B [5]: 15 ×10⁻⁶ cm/s |
| CCOc1nc(NC(=O)C2(NC(=O)c3ccc4c(C5CCCC5)c(-c5ncc(Br)cn5)n(C)c4c3)CCC2)ccc1/C=C/C(=O)O | 12 | 24 | – | – |
| COc1nc(NC(=O)C2(NC(=O)c3ccc4c(C5CCCC5)c(-c5ccc(F)cn5)n(C)c4c3)CCC2)ccc1/C=C/C(=O)O | 12 | 68 | 4 | – |
| COc1nc(NC(=O)C2(NC(=O)c3ccc4c(C5CCCC5)c(-c5ccccn5)n(C)c4c3)CCC2)ccc1/C=C/C(=O)O | 15 | – | 3.5 | half-life at 2 µM [4]: 1.27 h; half-life at 2 µM [6]: 0.167 h; logD [10]: 3.5 |
| COc1nc(NC(=O)C(C)(C)NC(=O)c2ccc3c(C4CCCC4)c(-c4ncc(Cl)cn4)n(C)c3c2)ccc1/C=C/C(=O)O | 47 | – | 3.3 | – |
| COc1nc(NC(=O)C2(NC(=O)c3ccc4c(C5CCCC5)c(-c5ccc(Cl)cn5)n(C)c4c3)CCC2)ccc1/C=C/C(=O)O | 13 | – | 4.6 | – |
| CCOc1nc(NC(=O)C(C)(C)NC(=O)c2ccc3c(C4CCCC4)c(-c4ccccn4)n(C)c3c2)cnc1/C=C/C(=O)O | 44 | – | 2.2 | – |
| COc1nc(NC(=O)C(C)(C)NC(=O)c2ccc3c(C4CCCC4)c(-c4ccc(Cl)cn4)n(C)c3c2)ccc1/C=C/C(=O)O | 12 | – | 3.9 | – |
| CCOc1nc(NC(=O)C2(NC(=O)c3ccc4c(C5CCCC5)c(-c5ccccn5)n(C)c4c3)CCC2)cnc1/C=C/C(=O)O | 13 | – | 3.1 | half-life at 2 µM [4]: 1.78 h; half-life at 2 µM [6]: 0.617 h; concentration at 1 h [7]: 500 nM; concentration at 2 h [8]: 200 nM; logD [10]: 3.1 |
| CCOc1nc(NC(=O)C2(NC(=O)c3ccc4c(C5CCCC5)c(-c5cncnc5)n(C)c4c3)CCC2)ccc1/C=C/C(=O)O | 15 | – | 3.4 | half-life at 2 µM [4]: 1.02 h; Papp A→B [5]: 17 ×10⁻⁶ cm/s |
| COc1nc(NC(=O)C(C)(C)NC(=O)c2ccc3c(C4CCCC4)c(-c4ccc(F)cn4)n(C)c3c2)ccc1/C=C/C(=O)O | 12 | 67 | 3.3 | – |

Now from value to compound, other results behind:

| EC50 [1] [nM] | EC50 [2] [nM] | logD [3] | Structure (SMILES) | also measured |
| --- | --- | --- | --- | --- |
| 6 | 27 | 4.3 | CCOc1nc(NC(=O)C2(NC(=O)c3ccc4c(C5CCCC5)c(-c5ncc(Cl)cn5)n(C)c4c3)CCCC2)cnc1/C=C/C(=O)O | – |
| 8 | – | 3.6 | CCOc1nc(NC(=O)C2(NC(=O)c3ccc4c(C5CCCC5)c(-c5cnccn5)n(C)c4c3)CCC2)ccc1/C=C/C(=O)O | half-life at 2 µM [4]: 0.55 h; Papp A→B [5]: 13 ×10⁻⁶ cm/s |
| 12 | – | – | CCOc1nc(NC(=O)C(C)(C)NC(=O)c2ccc3c(c2)c(C)c(-c2ccc(F)cn2)n3C2CCCCC2)cnc1/C=C/C(=O)O | half-life at 2 µM [4]: 1.57 h; half-life at 2 µM [6]: 1.28 h; concentration at 1 h [7]: 300 nM; concentration at 2 h [8]: 100 nM |
| 5 | 9 | 4.4 | CCOc1nc(NC(=O)C(C)(C)NC(=O)c2ccc3c(C4CCCC4)c(-c4ccc(Cl)cn4)n(C)c3c2)ccc1/C=C/C(=O)O | – |
| 3 | 14 | 3.9 | CCOc1nc(NC(=O)C(C)(C)NC(=O)c2ccc3c(c2)c(C)c(-c2ccc(F)cn2)n3C2CCCCC2)ccc1/C=C/C(=O)O | – |
| 11 | – | 4.4 | CCOc1nc(NC(=O)C2(NC(=O)c3ccc4c(C5CCCC5)c(-c5ccccn5)n(C)c4c3)CCC2)ccc1/C=C/C(=O)O | half-life at 2 µM [4]: 0.667 h; Papp A→B [5]: 21 ×10⁻⁶ cm/s |
| 6 | 7 | 4 | CCOc1nc(NC(=O)C(C)(C)NC(=O)c2ccc3c(C4CCCC4)c(-c4ncc(Cl)cn4)n(C)c3c2)ccc1/C=C/C(=O)O | – |
| 6 | – | 2.6 | CCOc1nc(NC(=O)C(C)(C)NC(=O)c2ccc3c(C4CCCC4)c(-c4ccc(Cl)cn4)n(C)c3c2)cnc1/C=C/C(=O)O | half-life at 2 µM [4]: 4.6 h; half-life at 2 µM [6]: > 5 h; concentration at 2 h [8]: 660 nM; Cmax [9]: 660 nM; logD [10]: 2.6 |
| 5 | 13 | 3.2 | CCOc1nc(NC(=O)C2(NC(=O)c3ccc4c(C5CCCC5)c(-c5cnccn5)n(C)c4c3)CCCC2)cnc1/C=C/C(=O)O | half-life at 2 µM [4]: 1.33 h; half-life at 2 µM [6]: > 5 h; concentration at 1 h [7]: 400 nM; concentration at 2 h [8]: 100 nM; logD [10]: 3.2 |
| 12 | 63 | 3.1 | CCOc1nc(NC(=O)C2(NC(=O)c3ccc4c(c3)c(C)c(-c3ccc(F)cn3)n4C3CCCCC3)CCC2)cnc1/C=C/C(=O)O | – |
| 12 | – | 3 | CCOc1nc(NC(=O)C(C)(C)NC(=O)c2ccc3c(C4CCCC4)c(-c4cncnc4)n(C)c3c2)ccc1/C=C/C(=O)O | half-life at 2 µM [4]: 1.15 h; half-life at 2 µM [6]: 1.27 h; concentration at 1 h [7]: 200 nM; concentration at 2 h [8]: 100 nM; logD [10]: 3 |
| 5 | 8 | > 4.7 | CCOc1nc(NC(=O)C(C)(C)NC(=O)c2ccc3c(C4CCCC4)c(-c4ncc(Br)cn4)n(C)c3c2)ccc1/C=C/C(=O)O | – |
| 3 | 14 | > 6.2 | CCOc1nc(NC(=O)C2(NC(=O)c3ccc4c(C5CCCC5)c(-c5ncc(Cl)cn5)n(C)c4c3)CCCC2)ccc1/C=C/C(=O)O | – |
| 9 | 62 | 3.7 | COc1nc(NC(=O)C2(NC(=O)c3ccc4c(C5CCCC5)c(-c5ncc(Cl)cn5)n(C)c4c3)CCC2)ccc1/C=C/C(=O)O | – |
| 5 | – | 3.6 | CCOc1nc(NC(=O)C2(NC(=O)c3ccc4c(C5CCCC5)c(-c5cncnc5)n(C)c4c3)CCCC2)ccc1/C=C/C(=O)O | – |
| 7 | – | 3.2 | COc1nc(NC(=O)C(C)(C)NC(=O)c2ccc3c(C4CCCC4)c(-c4ncc(Br)cn4)n(C)c3c2)ccc1/C=C/C(=O)O | – |
| 10 | 52 | 4.2 | COc1nc(NC(=O)C2(NC(=O)c3ccc4c(c3)c(C)c(-c3ccc(F)cn3)n4C3CCCCC3)CCC2)ccc1/C=C/C(=O)O | – |
| 11 | – | 3.9 | CCOc1nc(NC(=O)C2(NC(=O)c3ccc4c(C5CCCC5)c(-c5ccc(F)cn5)n(C)c4c3)CCCC2)cnc1/C=C/C(=O)O | – |
